Each structure is given as a SMILES string. Numbered stars: 1 amine (or outer) side, 2 acyl side, 3 side chain; on linkers, the order of the positions; unused ones are H or OH. Bridge positions count the residues as written; N and C are the ends. Square brackets hold non-standard residues; d marks the D form. Peptide text beside a SMILES is read from it. * marks the point of attachment. C20 diacid = O=C(O)CCCCCCCCCCCCCCCCCCC(=O)*; γGlu = O=C(O)[C@H](CCC(=O)[*:2])N[*:1]; NMeI = CC[C@H](C)[C@H](NC)C(=O)O; Sar = CNCC(=O)O

The nature of data set [1]: Assessment of physical stability: fibril formation detected with Thioflavin T (ThT), lag-time. The class given is physicochemical. The conditions noted are these: 1 mg/ml peptide, 40 µM ThT, FND = Fibrillation not detected; for Fibrillation lag time (hours) pH 4.0 (Ac): 50 mM acetate buffer pH 4.0, 96 hours at 40°C; for Fibrillation lag time (hours) pH 7.0 (His): 50 mM histidine buffer pH 7.0, 96 hours at 40°C; for Fibrillation lag time (hours) pH 7.0 (Ph): 50 mM phosphate buffer pH 7.0, 96 hours at 40°C. The gist of the method:
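Test peptide at 1 mg/ml with 40 µM ThT in 50 mM phosphate (pH 7.0), 50 mM histidine (pH 7.0) or 50 mM acetate (pH 4.0), in triplicate, 40° C. for 96 h. Fluorescence read every 10 min after 300 s agitation. Lag-time (h) taken as intersection of linear fits to initial stable and growth phases.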

The nature of data set [2]: Pharmacokinetic (PK) profiling in rats. The class given is in vivo. The conditions noted are these: male, Sprague Dawley, rat, plasma, single sc bolus, 100 nmol/kg (18, NN96), 20 nmol/kg (72, 76), 30 nmol/kg (73, 82, 118, 162, 166, 172); for CL/F: apparent clearance; for half-life: terminal elimination half-life, read-out: t½ (converted). The protocol: Sprague Dawley male rats were given a single subcutaneous (sc) bolus of each peptide to be tested at doses as specified below..
Study A: Following the administration of a 100 nmol/kg dose of a test peptide of the invention (Compound 18) and a comparison pramlintide analogue NN96 (see Example 5, above), respectively, blood samples were drawn from the tail vein at 0.5, 3, 8, 15, 36, 60 and 81 hours post-dosing. 4 rats were used (2 rats per compound). The rats were euthanized immediately after the last blood sampling by overdose of O2/CO2.
Study B: 20 nmol/kg doses of Compound 72 and Compound 76, respectively, of the invention were administered. Blood samples were drawn by sublingual bleeding prior to dosing and at 2, 6, 12, 24, 48, 72 and 96 hours after dosing. 4 rats were used (2 rats per compound). The rats were euthanized immediately after the last blood sampling by overdose of O2/CO2.
Study C: 30 nmol/kg doses of Compound 73, Compound 82 and Compound 118, respectively, of the invention were administered. Blood samples were drawn from the tail vein prior to dosing and at 24, 48, 72 and 96 hours after dosing. Blood samples were taken from two rats at each time point, and only 2 blood samples were drawn from each rat, i.e. 8 rats were used for each compound. The rats were euthanized immediately after the last blood sampling by concussion and cervical dislocation.
Study D: 30 nmol/kg doses of Compound 162, Compound 166 and Compound 172 were administered. Blood samples were drawn from the tail vein prior to dosing and at 24, 48, 72, 96 and 168 hours after dosing. Blood samples were taken from two rats at each time point, and only 2 blood samples were drawn from each rat, i.e. 10 rats were used for each compound. The rats were euthanized immediately after the last blood sampling by concussion and cervical dislocation.
The dosing vehicle used for each test peptide was a mannitol-containing histidine buffer (pH 7.0). Plasma samples were analyzed after precipitation with ethanol by liquid chromatography mass spectrometry (LC-MS/MS). Mean plasma concentrations were used for calculation of the pharmacokinetic parameters using the non-compartmental approach in Phoenix WinNonlin 6.3.
Plasma terminal elimination half-life (t½) was determined as In(2)/λz, where λz is the magnitude of the slope of the log linear regression of the log concentration versus time profile during the terminal phase. Apparent clearance (CL/F) was determined as dose/AUCinf (sc), where AUCinf is the area under the plasma concentration vs. time curve extrapolated to infinity (AUCinf = AUClast + Clast/λz, where Clast is the last observed plasma concentration).

Data set [3] has as its system Sprague Dawley (SD) rats. Kind of data set: Acute food intake and body weight in normal Sprague Dawley rats. The format is in vivo. To be noted: vehicle-corrected, dose 30 nmol/kg sc, once; for Body weight loss (%) after 96 hours: mean ± SEM, n = 8. The method in brief: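 Normal male-unspecified SD rats, n = 8 per group, given a single s.c. peptide dose of 30 nmol/kg just before dark phase, with vehicle and positive control groups. Food intake recorded at 0, 4, 7, 10, 24, 48, 72 and 96 h; body weight daily; means ± SEM.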

With `CC[C@H](C)[C@@H](C(=O)N[C@@H](CC(C)C)C(=O)N[C@@H](CO)C(=O)N[C@@H](CO)C(=O)N[C@H](C(=O)N[C@@H](CCC(=O)O)C(=O)N[C@H](C(=O)NCC(=O)N[C@@H](CO)C(=O)N[C@@H](CCC(=O)O)C(=O)N[C@H](C(=O)N1CCC[C@H]1C(N)=O)[C@@H](C)O)C(C)C)[C@@H](C)O)N(C)C(=O)[C@H](C)NC(=O)CN(C)C(=O)[C@H](Cc1ccccc1)NC(=O)[C@H](CO)NC(=O)[C@H](CO)NC(=O)[C@H](CO)NC(=O)[C@H](CO)NC(=O)[C@H](CCCNC(=N)N)NC(=O)[C@H](Cc1c[nH]cn1)NC(=O)[C@H](CC(C)C)NC(=O)[C@H](Cc1ccccc1)NC(=O)[C@H](CCC(=O)O)NC(=O)[C@H](C)NC(=O)[C@H](CC(C)C)NC(=O)[C@H](CCCNC(=N)N)NC(=O)[C@H](CCC(N)=O)NC(=O)[C@@H](NC(=O)[C@H](C)NC(=O)[C@@H]1CSSC[C@H](NC(=O)[C@H](CCCNC(=N)N)NC(=O)CC[C@H](NC(=O)CCCCCCCCCCCCCCCCCCC(=O)O)C(=O)O)C(=O)N[C@@H](CC(N)=O)C(=O)N[C@@H]([C@@H](C)O)C(=O)N[C@@H](C)C(=O)N[C@@H]([C@@H](C)O)C(=O)N1)[C@@H](C)O` [Compound 76, [19CD]-isoGlu-RC()NTATC()ATQRLAEFLHRSSSSF-Gly(Me)-A-Ile(Me)-LSSTEVGSETP-NH2] ({C20 diacid-γGlu}-RCNTATCATQRLAEFLHRSSSSF[Sar]A[NMeI]LSSTEVGSETP-NH2; disulfide 2-7), in data set [1], the “Fibrillation lag time (hours) pH 4.0 (Ac)” value (“Fibrillation lag time … (Ac)” below) is listed as “FND”, the “Fibrillation lag time (hours) pH 7.0 (His)” value (“Fibrillation lag time … (His)” below) is reported as “FND” and the “Fibrillation lag time (hours) pH 7.0 (Ph)” value (“Fibrillation lag time … (Ph)” for short) is reported as “FND”. Moreover, in data set [2], the CL/F is 3.53 mL/h/kg and the half-life was 37.3 h. In data set [3], the “Food intake inhibition (%) after 48 hours” value (“Food intake inhibition (%)” for short) came out at 100% and the “Body weight loss (%) after 96 hours” value was determined as 11 ± 1.2%.
For `CC[C@H](C)[C@@H](C(=O)N[C@@H](CC(C)C)C(=O)N[C@@H](CO)C(=O)N[C@@H](CO)C(=O)N[C@H](C(=O)N[C@@H](CCC(=O)O)C(=O)N[C@H](C(=O)NCC(=O)N[C@@H](CO)C(=O)N[C@@H](CCC(=O)O)C(=O)N[C@H](C(=O)N1CCC[C@H]1C(N)=O)[C@@H](C)O)C(C)C)[C@@H](C)O)N(C)C(=O)[C@H](C)NC(=O)CN(C)C(=O)[C@H](Cc1ccccc1)NC(=O)[C@H](CO)NC(=O)[C@H](CO)NC(=O)[C@H](CCCNC(=N)N)NC(=O)[C@H](Cc1c[nH]cn1)NC(=O)[C@H](CC(C)C)NC(=O)[C@H](Cc1ccccc1)NC(=O)[C@H](CCC(=O)O)NC(=O)[C@H](C)NC(=O)[C@H](CC(C)C)NC(=O)[C@H](CCCNC(=N)N)NC(=O)[C@H](CCC(N)=O)NC(=O)[C@@H](NC(=O)[C@H](C)NC(=O)[C@@H]1CSSC[C@H](NC(=O)[C@H](CCCNC(=N)N)NC(=O)CC[C@H](NC(=O)CCCCCCCCCCCCCCCCCCC(=O)O)C(=O)O)C(=O)N[C@@H](CC(N)=O)C(=O)N[C@@H]([C@@H](C)O)C(=O)N[C@@H](C)C(=O)N[C@@H]([C@@H](C)O)C(=O)N1)[C@@H](C)O` [Compound 82, [19CD]-isoGlu-RC()NTATC()ATQRLAEFLHRSSF-Gly(Me)-A-Ile(Me)-LSSTEVGSETP-NH2] ({C20 diacid-γGlu}-RCNTATCATQRLAEFLHRSSF[Sar]A[NMeI]LSSTEVGSETP-NH2; disulfide 2-7), in data set [1], the “Fibrillation lag time … (Ac)” value is on record as “FND”, the “Fibrillation lag time … (His)” value is listed as “FND” and the “Fibrillation lag time … (Ph)” value is recorded as “FND”. In data set [2], the CL/F is 4.01 mL/h/kg and the half-life is 44.2 h. Also, in data set [3], the “Food intake inhibition (%)” value came out at 93% and the “Body weight loss (%) after 96 hours” value came to 13 ± 1.0%.
With `CC[C@H](C)[C@@H](C(=O)N[C@@H](CC(C)C)C(=O)N[C@@H](CO)C(=O)N[C@@H](CO)C(=O)N[C@H](C(=O)N[C@@H](CCC(=O)O)C(=O)N[C@H](C(=O)NCC(=O)N[C@@H](CO)C(=O)N[C@@H](CCC(=O)O)C(=O)N[C@H](C(=O)N1CCC[C@H]1C(N)=O)[C@@H](C)O)C(C)C)[C@@H](C)O)N(C)C(=O)[C@H](C)NC(=O)CN(C)C(=O)[C@H](Cc1ccccc1)NC(=O)[C@H](CO)NC(=O)[C@H](CO)NC(=O)[C@H](CO)NC(=O)[C@H](CO)NC(=O)[C@H](CCCNC(=N)N)NC(=O)[C@H](Cc1c[nH]cn1)NC(=O)[C@H](CC(C)C)NC(=O)[C@H](Cc1ccccc1)NC(=O)[C@H](CCC(=O)O)NC(=O)[C@H](C)NC(=O)[C@H](CC(C)C)NC(=O)[C@H](CCCNC(=N)N)NC(=O)[C@H](C)NC(=O)[C@@H](NC(=O)[C@H](C)NC(=O)[C@@H]1CSSC[C@H](NC(=O)[C@H](CCCNC(=N)N)NC(=O)CC[C@H](NC(=O)CCCCCCCCCCCCCCCCCCC(=O)O)C(=O)O)C(=O)N[C@@H](CC(N)=O)C(=O)N[C@@H]([C@@H](C)O)C(=O)N[C@@H](C)C(=O)N[C@@H]([C@@H](C)O)C(=O)N1)[C@@H](C)O` [Compound 118, [19CD]-isoGlu-RC()NTATC()ATARLAEFLHRSSSSF-Gly(Me)-A-Ile(Me)-LSSTEVGSETP-NH2] ({C20 diacid-γGlu}-RCNTATCATARLAEFLHRSSSSF[Sar]A[NMeI]LSSTEVGSETP-NH2; disulfide 2-7), in data set [1], the “Fibrillation lag time … (Ac)” value was “FND”, the “Fibrillation lag time … (His)” value is recorded as “FND” and the “Fibrillation lag time … (Ph)” value is reported as “FND”. For the same compound, in data set [2], the CL/F was 3.51 mL/h/kg and the half-life was 56.4 h. Further, in data set [3], the “Food intake inhibition (%)” value was 93% and the “Body weight loss (%) after 96 hours” value was 13 ± 1.8%.
With `CC[C@H](C)[C@@H](C(=O)N[C@@H](CC(C)C)C(=O)N[C@@H](CO)C(=O)N[C@@H](CO)C(=O)N[C@H](C(=O)N[C@@H](CCC(=O)O)C(=O)N[C@H](C(=O)NCC(=O)N[C@@H](CO)C(=O)N[C@@H](CCC(=O)O)C(=O)N[C@H](C(=O)N1CCC[C@H]1C(N)=O)[C@@H](C)O)C(C)C)[C@@H](C)O)N(C)C(=O)[C@H](C)NC(=O)CN(C)C(=O)[C@H](Cc1ccccc1)NC(=O)[C@H](CO)NC(=O)[C@H](CO)NC(=O)[C@H](CCCNC(=N)N)NC(=O)[C@H](Cc1c[nH]cn1)NC(=O)[C@H](CC(C)C)NC(=O)[C@H](Cc1ccccc1)NC(=O)[C@H](CCC(=O)O)NC(=O)[C@H](C)NC(=O)[C@H](CC(C)C)NC(=O)[C@H](CCCNC(=N)N)NC(=O)[C@H](CCC(=O)O)NC(=O)[C@@H](NC(=O)[C@H](C)NC(=O)[C@@H]1CSSC[C@H](NC(=O)[C@H](CCCNC(=N)N)NC(=O)CC[C@H](NC(=O)CCCCCCCCCCCCCCCCCCC(=O)O)C(=O)O)C(=O)NCC(=O)N[C@@H]([C@@H](C)O)C(=O)N[C@@H](C)C(=O)N[C@@H]([C@@H](C)O)C(=O)N1)[C@@H](C)O` [Compound 162, [19CD]-isoGlu-RC()GTATC()ATERLAEFLHRSSF-Gly(Me)-A-Ile(Me)-LSSTEVGSETP-NH2] ({C20 diacid-γGlu}-RCGTATCATERLAEFLHRSSF[Sar]A[NMeI]LSSTEVGSETP-NH2; disulfide 2-7), in data set [1], the “Fibrillation lag time … (Ac)” value is on record as “FND”, the “Fibrillation lag time … (His)” value is given as “FND” and the “Fibrillation lag time … (Ph)” value was “FND”. For the same compound, in data set [2], the CL/F was 5.92 mL/h/kg and the half-life is 29.8 h. In addition, in data set [3], the “Food intake inhibition (%)” value is reported as 99% and the “Body weight loss (%) after 96 hours” value worked out at 13 ± 2.2%.

For orientation: CL/F means clearance divided by bioavailability, as obtained after extravascular dosing.

(Values after EP3046573B1, “AMYLIN ANALOGUES” (Zealand Pharma A/S, priority 2013, dated 2015).)
